The values that follow come from patent US12286418B2, “Compounds and methods for treating or preventing bacterial infections” (priority 2019, dated 2025).

In one assay the target is T1, OXA-24 (Acinetobacter baumannii, UniProt Q8RLA6).
T1 construct: His-tag (N, cleaved yes); made in house; host or cells: E. coli BL21 (DE3), pET28a
The assay can be described thus: Inhibition of other OXA enzymes (nitrocefin reporter): OXA-24. In kind it is biochemical. As to the method: (§1) Compounds were tested for inhibition of a given OXA enzyme from hydrolyzing nitrocefin using a Tecan plate reader. […] A control with no compound was included in each run. For each compound concentration, the velocity of nitrocefin hydrolysis was determined at 482 nm and fit to the Morrison equation. […] The average Ki of separate experiments, each of which consisted of duplicate runs, is reported and error was quantified as the standard deviation.
(§2) The high sequence diversity of class D β-lactamases has made it difficult to find a class-wide inhibitor. The inhibition activity of CDD-97 was tested against other OXA-enzymes of varying sequence identity, to assess its spectrum of activity (Table 2). OXA-10 is regarded as the canonical OXA, however it is not a major clinical threat as it mainly hydrolyzes penicillins. OXA-58 is another carbapenemase unable to hydrolyze extended-spectrum cephalosporins like OXA-48. Both OXA-48 and OXA-58 are predominantly found in gram-negative bacteria, however OXA-48 is prevalent in the Enterobacteriaceae family (mainly Klebsiella pneumoniae), while OXA-58 is found in the Moraxellaceae family (mainly Acintobacter baumannii). While K. pneumoniae is more rampant in the clinics and most OXA-mediated carbapenem is due to OXA-48, A. baumannii nosocomial infections are a growing issue. OXA-163 is an OXA-48 like enzyme also prevalent in Enterobacteriaceae. […]

Another assay has as its system E. coli MG1655OXA-48. The assay can be described thus: Bacterial susceptibility (MIC, broth microdilution) of E. coli expressing OXA-48. In kind it is cell-based. Particulars: for MIC: Escherichia coli. As to the method: Bacterial susceptibility was specifically tested using minimum inhibitory concentration assays. Susceptibility assays were performed with E. coli strains using broth in a microplate set up. Two-fold dilutions of antibiotic and/or inhibitor were used. For susceptibility tests, bacterial strains were transformed with plasmids containing OXA-48 with its endogenous signal sequence for periplasmic migration (cloned into pTP123 vector) (Majiduddin & Palzkill, 2003, Antimicrob. Agents Chemother. 47:1062-1067). pTP123 was cut with XbaI and SacI and the linearized fragment was assembled using Gibson assembly (New England Biolabs, Ipswich, MA) its signal sequence cloned in by using Gibson assembly. Bacteria were grown in Mueller-Hinton broth with 12.5 μg/mL chloramphenicol (plasmid marker) overnight. An overnight culture was diluted 1:10^4 into the final well solutions (100 uL total) and incubated for 16-18 hours. After incubation, microplates were read using a Tecan plate reader at absorbance 600. Growth was objectively defined as yielding an absorbance ≥2 times the absorbance of the negative control (media and no culture). Experiments were repeated with new bacterial inoculums each time.
Effective β-lactamase inhibitors synergize with β-lactam antibiotics and ultimately lower the minimum inhibitory concentration (MIC) of antibiotic needed to kill the bacteria. MIC studies were performed with ampicillin (AMP), a β-lactam antibiotic readily hydrolyzed by OXA-48, against E. coli strain MG1655 expressing OXA-48 (MG1655OXA-48). The OXA-48 plasmid construct contained the endogenous signal sequence of OXA-48 for secretion to the periplasm, which was expressed under a trc-promoter, allowing leaky expression in the absence of IPTG inducer. All MICs were performed by broth microdilution with 2-fold dilutions of antibiotic and/or inhibitor (FIG. 6A). The ampicillin (AMP) and imipenem (IMP) MICs were separately determined for a range of CDD-97 and avibactam concentrations. […] In the absence of bacteria, the media (Mueller Hinton) gives an absorbance reading of 0.04 so absorbance readings greater than or equal to two-fold the control were considered bacterial growth. […] CDD-97 was tested for its synergistic ability by determining AMP MICs with a range of CDD-97 concentrations (up to 256 μg/ml).
Impermeability of the outer membrane to small molecules is a major challenge for the development of therapeutics for Gram-negative bacterial infections. β-lactamases, including OXA-48, reside in the periplasmic space and so inhibitors must traverse the outer membrane to be effective. To determine whether low permeability caused the poor in vivo activity of CDD-97, an accumulation assay (Richter, et al., 2017, Nature 545:299-304) was performed to quantify the amount of CDD-97 present in E. coli cells after incubation. In the assay, tetracycline was used as a positive control while fusidic acid and clindamycin were used as negative controls (Richter, et al., 2017, Nature 545:299-304). Controls and CDD-97 were separately incubated with wildtype E. coli (MG1655) cells and then these cells were centrifuged through silicone oil to separate free, unaccumulated compound from the cell pellet. Cell lysates were collected by freeze-thawing and analyzed by mass spectrometry to quantify the amount of accumulated compound. Compared to tetracycline, CDD-97 was present in cells at 20-fold lower levels (FIG. 6B). […] The finding that CDD-97 accumulates inefficiently across the outer membrane was also examined by adding sub-lethal concentrations of colistin to the ampicillin/CDD-97 MIC assays. Colistin is known to disrupt the outer membrane and enhance permeability in E. coli. If the outer membrane is a barrier for CDD-97, it was predicted that the addition of sub-lethal concentrations of colistin would enhance the activity of CDD-97 against E. coli. […]
Background: Dilution methods test growth across graded concentrations, often in twofold steps.

The target of a further assay is OXA-163 (Klebsiella pneumoniae, UniProt Q6XEC0, DEL214-217/S212D). Put plainly: Inhibition of other OXA enzymes (nitrocefin reporter): OXA-163. In kind it is biochemical, Enterobacteriaceae. The method, then: as §1, §2
Sequence of OXA-163 (Q6XEC0 23-211, added parts left off, stated change not applied): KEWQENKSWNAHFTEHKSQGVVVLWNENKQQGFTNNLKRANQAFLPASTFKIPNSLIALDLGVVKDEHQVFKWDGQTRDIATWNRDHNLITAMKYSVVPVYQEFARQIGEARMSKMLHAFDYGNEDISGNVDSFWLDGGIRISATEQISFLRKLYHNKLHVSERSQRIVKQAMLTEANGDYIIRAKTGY

Entries after “also recorded” stand apart in the source; their conditions may differ. Read-outs that look alike come from different tables or passages of the source.

T1 sequence (Q8RLA6 entry or part of it): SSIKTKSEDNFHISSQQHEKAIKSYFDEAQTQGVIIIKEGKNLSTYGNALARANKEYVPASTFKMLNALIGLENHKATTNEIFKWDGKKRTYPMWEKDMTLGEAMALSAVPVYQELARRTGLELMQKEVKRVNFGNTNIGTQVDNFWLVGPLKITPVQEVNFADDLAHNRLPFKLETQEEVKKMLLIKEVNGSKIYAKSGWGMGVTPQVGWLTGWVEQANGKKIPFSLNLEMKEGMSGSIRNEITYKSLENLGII

The Ki is a measure of affinity in units of concentration, obtained from inhibition or displacement. A low value points to higher affinity. With `CCOc1ccccc1N1CCN(c2ncnc(N3CCC(C(=O)O)CC3)n2)CC1` [CDD-97, 1-(4-(4-(2-ethoxyphenyl)piperazin-1-yl)-1,3,5-triazin-2-yl)piperidine-4-carboxylic acid], the Ki turned out to be 14 ± 1 µM on OXA-24 and 0.44 ± 0.02 µM on OXA-163. Besides, the “synergy with β-lactam antibiotics (effect on AMP/IMP MIC) in words” value in the assay on E. coli MG1655OXA-48 (E. coli expressing OXA-48, CDD-97 up to 256 μg/mL, avibactam up to 4 μg/mL) was “did not synergize with ampicillin; also recorded: no synergy was seen between CDD-97 and imipenem; also recorded: colistin potentiates the activity of CDD-97; also recorded: synergizes weakly”. In addition, the MIC turned out to be 1020 µg/mL with E. coli MG1655OXA-48 (MG1655OXA48, read-out: AMP MIC, with 4 μg/mL CDD-97); 512 µg/mL in the assay on E. coli MG1655OXA-48 (MG1655OXA48, read-out: AMP MIC, with 8 μg/mL CDD-97); 512 µg/mL in the assay with E. coli MG1655OXA-48 (MG1655OXA48, read-out: AMP MIC, with 16 μg/mL CDD-97); 512 µg/mL in the assay on E. coli MG1655OXA-48 (MG1655OXA48, read-out: AMP MIC, with 32 μg/mL CDD-97); 512 µg/mL in the assay with E. coli MG1655OXA-48 (MG1655OXA48, read-out: AMP MIC, with 64 μg/mL CDD-97); 512 µg/mL in the assay with E. coli MG1655OXA-48 (MG1655OXA48, read-out: AMP MIC, with 128 μg/mL CDD-97). For the same compound, the MIC in the assay on E. coli MG1655OXA-48 (MG1655OXA48, read-out: AMP MIC, with 256 μg/mL CDD-97) stood at 512 µg/mL; with E. coli MG1655OXA-48 (MG1655OXA48, read-out: AMP MICs, (+) CDD-97 (16 μg/mL), colistin 0 μg/mL), 1020 µg/mL; with E. coli MG1655OXA-48 (MG1655OXA48, read-out: AMP MICs, (+) CDD-97 (16 μg/mL), colistin 0.0625 μg/mL), 512 µg/mL; in the assay on E. coli MG1655OXA-48 (MG1655OXA48, read-out: AMP MICs, (+) CDD-97 (16 μg/mL), colistin 0.125 μg/mL), 1020 µg/mL; with E. coli MG1655OXA-48 (MG1655OXA48, read-out: AMP MICs, (+) CDD-97 (16 μg/mL), colistin 0.25 μg/mL), 256 µg/mL; in the assay with E. coli MG1655OXA-48 (MG1655OXA48, read-out: AMP MICs, (+) CDD-97 (16 μg/mL), colistin 0.5 μg/mL) it was 128 µg/mL. The MIC with E. coli MG1655OXA-48 (MG1655OXA48, read-out: AMP MICs, (+) CDD-97 (16 μg/mL), colistin 1 μg/mL) was determined as 8 µg/mL; with E. coli MG1655OXA-48 (MG1655OXA48, read-out: IMP MIC, with 4 μg/mL CDD-97), 0.625 µg/mL; in the assay with E. coli MG1655OXA-48 (MG1655OXA48, read-out: IMP MIC, with 8 μg/mL CDD-97), 0.312 µg/mL; in the assay with E. coli MG1655OXA-48 (MG1655OXA48, read-out: IMP MIC, with 16 μg/mL CDD-97), 0.312 µg/mL; with E. coli MG1655OXA-48 (MG1655OXA48, read-out: IMP MIC, with 32 μg/mL CDD-97), 0.312 µg/mL; in the assay on E. coli MG1655OXA-48 (MG1655OXA48, read-out: IMP MIC, with 64 μg/mL CDD-97), 0.312 µg/mL. Besides, the MIC with E. coli MG1655OXA-48 (MG1655OXA48, read-out: IMP MIC, with 128 μg/mL CDD-97) is 0.312 µg/mL; in the assay with E. coli MG1655OXA-48 (MG1655OXA48, read-out: IMP MIC, with 256 μg/mL CDD-97), 0.625 µg/mL.
